Here are results for one compound from paper PMC3130732, “E. coli Histidine Triad Nucleotide Binding Protein 1 (ecHinT) Is a Catalytic Regulator of D-Alanine Dehydrogenase (DadA) Activity In Vivo” (PLoS ONE, 2011).

For the assay, the target named is T1, E. coli Histidine Triad Nucleotide Binding Protein 1 (ecHinT) (Escherichia coli, UniProt P0ACE7).
T1 construct: gene hinT
Put plainly: spectrophotometric phosphoramidase assay. The class given is biochemical.

T1 sequence (P0ACE7 whole entry): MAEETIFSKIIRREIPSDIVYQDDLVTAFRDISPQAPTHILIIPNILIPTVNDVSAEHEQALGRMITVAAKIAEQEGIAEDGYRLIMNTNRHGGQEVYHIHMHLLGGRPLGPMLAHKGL

`Nc1nc2c(ncn2[C@@H]2O[C@H](COC(=O)NCCc3c[nH]c4ccccc34)[C@@H](O)[C@H]2O)c(=O)[nH]1` [TpGc, 5′-O-[(3-indolyl)-1-ethyl]carbamoyl guanosine] showed an inhibition constant Ki of 42 µM.
